According to patent publication US8952024B2, “Herbicidal pyrimidone derivatives” (E I du Pont de Nemours and Company, priority 2009, dated 2015):

What was measured:
Experiment in all cases: Test B pre-/postemergence plant response
Format in all cases: in vivo
Conditions in all cases: Postemergence
[1] = tested on: blackgrass (Alopecurus myosuroides)
Procedure, shortened: (§1)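 Ratings reflect visual comparison with untreated controls 13 to 15 days after application, from 0 (no effect) to 100 (complete control). Application was preemergence to seeded loam/sand soil or postemergence to 1- to 4-leaf plants, with compound in a non-phytotoxic, surfactant-containing solvent.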

[2] = tested on: Surinam grass (Brachiaria decumbens)
Procedure, shortened: as §1

[3] = tested on: downy bromegrass (Bromus tectorum)
Procedure, shortened: as §1

[4] = tested on: ragweed (common ragweed, Ambrosia elatior)
Procedure, shortened: as §1

[5] = tested on: bermudagrass (Cynodon dactylon)
Procedure, shortened: as §1

[6] = tested on: wheat (Triticum aestivum)
Procedure, shortened: as §1

[7] = tested on: Italian ryegrass (Lolium multiflorum)
Procedure, shortened: as §1

kochia (Kochia scoparia) = tested on: kochia (Kochia scoparia)
Procedure, shortened: as §1

[8] = tested on: cocklebur (Xanthium strumarium)
Procedure, shortened: as §1

[9] = tested on: morningglory (Ipomoea coccinea)
Procedure, shortened: as §1

[10] = tested on: woolly cupgrass (Eriochloa villosa)
Procedure, shortened: as §1

[11] = tested on: large crabgrass (Digitaria sanguinalis)
Procedure, shortened: as §1

wild oat (Avena fatua) = tested on: wild oat (Avena fatua)
Procedure, shortened: as §1

Compound `COc1ccc(-n2c(-c3ccccc3)ncc(C(=O)C3=C(O)CCCC3=O)c2=O)cc1` [Compound 4, 5-[(2-hydroxy-6-oxo-cyclohexen-1-yl)carbonyl]-3-(4-methoxyphenyl)-2-phenyl-4(3H)-pyrimidinone] has a pest or weed control at 31 g/ha ([1]; Alopecurus myosuroides, post-emergence, 360 h, 31 g ai/ha, scale 0 to 100 (0 no effect, 100 complete control), read-out: Plant response rating, Blackgrass) of 10%, a pest or weed control at 62 g/ha ([1]; Alopecurus myosuroides, post-emergence, 360 h, 62 g ai/ha, scale 0 (no effect) to 100 (complete control), 13 to 15 days, read-out: Plant response rating, Blackgrass) of 20% and a pest or weed control at 125 g/ha ([1]; Alopecurus myosuroides, post-emergence, 360 h, 125 g ai/ha, visual rating after 13 to 15 days, scale 0 (no effect) to 100 (complete control)) of 30%. The “Blackgrass plant response rating” value ([1]; 250 g ai/ha, scale 0 to 100) was 50, the “Surinam Grass plant response rating” value ([2]; 250 g ai/ha, scale 0 to 100) was 90 and the pest or weed control at 31 g/ha ([2]; Urochloa decumbens, post-emergence, 31 g ai/ha, scale 0 to 100 (0 no effect, 100 complete control), read-out: Plant response rating, Surinam Grass) was 60%. It also gave a pest or weed control at 62 g/ha ([2]; Urochloa decumbens, post-emergence, 62 g ai/ha, scale 0 (no effect) to 100 (complete control), 13 to 15 days, read-out: Plant response rating, Surinam Grass) of 70%, a pest or weed control at 125 g/ha ([2]; Urochloa decumbens, post-emergence, 125 g ai/ha, visual rating after 13 to 15 days, scale 0 (no effect) to 100 (complete control)) of 75% and a pest or weed control at 31 g/ha ([3]; Bromus tectorum, post-emergence, 31 g ai/ha, scale 0 to 100 (0 no effect, 100 complete control), read-out: Plant response rating, Bromegrass, Downy) of 10%. For the same compound, the pest or weed control at 62 g/ha ([3]; Bromus tectorum, post-emergence, 62 g ai/ha, scale 0 (no effect) to 100 (complete control), 13 to 15 days, read-out: Plant response rating, Bromegrass, Downy) was 15%, the pest or weed control at 125 g/ha ([3]; Bromus tectorum, post-emergence, 125 g ai/ha, visual rating after 13 to 15 days, scale 0 (no effect) to 100 (complete control)) was 50% and the “Bromegrass, Downy plant response rating” value ([3]; 250 g ai/ha, scale 0 to 100) was 55. For the same compound, the pest or weed control at 31 g/ha ([4]; Ambrosia artemisiifolia, post-emergence, 360 h, 31 g ai/ha, scale 0 to 100 (0 no effect, 100 complete control), read-out: Plant response rating, Ragweed) was 100%, the pest or weed control at 62 g/ha ([4]; Ambrosia artemisiifolia, post-emergence, 360 h, 62 g ai/ha, scale 0 (no effect) to 100 (complete control), 13 to 15 days, read-out: Plant response rating, Ragweed) was 100% and the pest or weed control at 125 g/ha ([4]; Ambrosia artemisiifolia, post-emergence, 360 h, 125 g ai/ha, visual rating after 13 to 15 days, scale 0 (no effect) to 100 (complete control)) was 100%. The “Ragweed plant response rating” value ([4]; 250 g ai/ha, scale 0 to 100) was 100, the pest or weed control at 31 g/ha ([5]; Cynodon dactylon, post-emergence, 31 g ai/ha, scale 0 to 100 (0 no effect, 100 complete control), read-out: Plant response rating, Bermudagrass) was 15% and the pest or weed control at 62 g/ha ([5]; Cynodon dactylon, post-emergence, 62 g ai/ha, scale 0 (no effect) to 100 (complete control), 13 to 15 days, read-out: Plant response rating, Bermudagrass) was 85%. The pest or weed control at 125 g/ha ([5]; Cynodon dactylon, post-emergence, 125 g ai/ha, scale 0 to 100 (0 no effect, 100 complete control), 13 to 15 days, read-out: Plant response rating, Bermudagrass) was 85%, the “Bermudagrass plant response rating” value ([5]; 250 g ai/ha, scale 0 to 100) was 100 and the “Wheat plant response rating” value ([6]; 250 g ai/ha, scale 0 to 100) was 70. The plant injury at 31 g/ha ([6]; Triticum aestivum, post-emergence, 31 g ai/ha, scale 0 to 100 (0 no effect, 100 complete control), read-out: Plant response rating, Wheat) was 5%, the plant injury at 62 g/ha ([6]; Triticum aestivum, post-emergence, 62 g ai/ha, scale 0 (no effect) to 100 (complete control), 13 to 15 days, read-out: Plant response rating, Wheat) was 5% and the plant injury at 125 g/ha ([6]; Triticum aestivum, post-emergence, 125 g ai/ha, visual rating after 13 to 15 days, scale 0 (no effect) to 100 (complete control)) was 50%. For the same compound, the pest or weed control at 31 g/ha ([7]; Lolium multiflorum, post-emergence, 31 g ai/ha, scale 0 to 100 (0 no effect, 100 complete control), read-out: Plant response rating, Ryegrass, Italian) was 10%, the pest or weed control at 62 g/ha ([7]; Lolium multiflorum, post-emergence, 62 g ai/ha, scale 0 (no effect) to 100 (complete control), 13 to 15 days, read-out: Plant response rating, Ryegrass, Italian) was 10% and the pest or weed control at 125 g/ha ([7]; Lolium multiflorum, post-emergence, 125 g ai/ha, visual rating after 13 to 15 days, scale 0 (no effect) to 100 (complete control)) was 15%. For the same compound, the “Ryegrass, Italian plant response rating” value ([7]; 250 g ai/ha, scale 0 to 100) was 20, the pest or weed control at 31 g/ha (kochia (Kochia scoparia); Bassia scoparia, post-emergence, 31 g ai/ha, scale 0 to 100 (0 no effect, 100 complete control), read-out: Plant response rating, Kochia) was 80% and the pest or weed control at 62 g/ha (kochia (Kochia scoparia); Bassia scoparia, post-emergence, 62 g ai/ha, scale 0 (no effect) to 100 (complete control), 13 to 15 days, read-out: Plant response rating, Kochia) was 100%. For the same compound, the pest or weed control at 125 g/ha (kochia (Kochia scoparia); Bassia scoparia, post-emergence, 125 g ai/ha, visual rating after 13 to 15 days, scale 0 (no effect) to 100 (complete control)) was 100%, the “Kochia plant response rating” value (kochia (Kochia scoparia); 250 g ai/ha, scale 0 to 100) was 100 and the “Cocklebur plant response rating” value ([8]; 250 g ai/ha, scale 0 to 100) was 100. The pest or weed control at 31 g/ha ([8]; Xanthium strumarium, post-emergence, 31 g ai/ha, scale 0 to 100 (0 no effect, 100 complete control), read-out: Plant response rating, Cocklebur) was 100%, the pest or weed control at 62 g/ha ([8]; Xanthium strumarium, post-emergence, 62 g ai/ha, scale 0 (no effect) to 100 (complete control), 13 to 15 days, read-out: Plant response rating, Cocklebur) was 100% and the pest or weed control at 125 g/ha ([8]; Xanthium strumarium, post-emergence, 125 g ai/ha, visual rating after 13 to 15 days, scale 0 (no effect) to 100 (complete control)) was 100%. The pest or weed control at 31 g/ha ([9]; Ipomoea, post-emergence, 31 g ai/ha, scale 0 to 100 (0 no effect, 100 complete control), read-out: Plant response rating, Morningglory) was 60%, the pest or weed control at 62 g/ha ([9]; Ipomoea, post-emergence, 62 g ai/ha, scale 0 (no effect) to 100 (complete control), 13 to 15 days, read-out: Plant response rating, Morningglory) was 85% and the pest or weed control at 125 g/ha ([9]; Ipomoea, post-emergence, 125 g ai/ha, visual rating after 13 to 15 days, scale 0 (no effect) to 100 (complete control)) was 90%. For the same compound, the “Morningglory plant response rating” value ([9]; 250 g ai/ha, scale 0 to 100) was 95, the pest or weed control at 31 g/ha ([10]; Eriochloa villosa, post-emergence, 31 g ai/ha, scale 0 to 100 (0 no effect, 100 complete control), read-out: Plant response rating, Cupgrass, Woolly) was 75% and the pest or weed control at 62 g/ha ([10]; Eriochloa villosa, post-emergence, 62 g ai/ha, scale 0 (no effect) to 100 (complete control), 13 to 15 days, read-out: Plant response rating, Cupgrass, Woolly) was 95%. The pest or weed control at 125 g/ha ([10]; Eriochloa villosa, post-emergence, 125 g ai/ha, visual rating after 13 to 15 days, scale 0 (no effect) to 100 (complete control)) was 100%, the “Cupgrass, Woolly plant response rating” value ([10]; 250 g ai/ha, scale 0 to 100) was 100 and the pest or weed control at 31 g/ha ([11]; Digitaria sanguinalis, post-emergence, 31 g ai/ha, scale 0 to 100 (0 no effect, 100 complete control), read-out: Plant response rating, Crabgrass, Large) was 70%. The pest or weed control at 62 g/ha ([11]; Digitaria sanguinalis, post-emergence, 62 g ai/ha, scale 0 (no effect) to 100 (complete control), 13 to 15 days, read-out: Plant response rating, Crabgrass, Large) was 85%, the pest or weed control at 125 g/ha ([11]; Digitaria sanguinalis, post-emergence, 125 g ai/ha, visual rating after 13 to 15 days, scale 0 (no effect) to 100 (complete control)) was 100% and the “Crabgrass, Large plant response rating” value ([11]; 250 g ai/ha, scale 0 to 100) was 100. For the same compound, the pest or weed control at 31 g/ha (wild oat (Avena fatua); Avena fatua, post-emergence, 31 g ai/ha, scale 0 to 100 (0 no effect, 100 complete control), read-out: Plant response rating, Oat, Wild) was 30%, the pest or weed control at 62 g/ha (wild oat (Avena fatua); Avena fatua, post-emergence, 62 g ai/ha, scale 0 (no effect) to 100 (complete control), 13 to 15 days, read-out: Plant response rating, Oat, Wild) was 50% and the pest or weed control at 125 g/ha (wild oat (Avena fatua); Avena fatua, post-emergence, 125 g ai/ha, visual rating after 13 to 15 days, scale 0 (no effect) to 100 (complete control)) was 50%. For the same compound, the “Oat, Wild plant response rating” value (wild oat (Avena fatua); 250 g ai/ha, scale 0 to 100) was 50.
